Test system: Endogenous Huntingtin Protein
Assay: Endogenous Huntingtin Protein Assay (ELISA-based MSD electrochemiluminescence)
Assay type: cell-based
Conditions: Table 1
Summary of the method: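 Sandwich MSD electrochemiluminescence immunoassay. Capture used MW1 (expanded polyglutamine) or MAB2166 antibody coated at 1 μg/mL overnight at 4 °C. Samples were bound overnight at 4 °C, then a rabbit monoclonal detection antibody and SULFO-TAG anti-rabbit, each at 0.25 μg/mL, were applied for 1 h at room temperature.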

Structure (SMILES)	IC50
CN(c1nc2ccc(-c3ccc(-c4cn[nH]c4)cc3O)nc2s1)C1CC(C)(C)NC(C)(C)C1 [Compound 149, 2-{2-[methyl(2,2,6,6-tetramethylpiperidin-4-yl)amino][1,3]thiazolo[5,4-b]pyridin-5-yl}-5-(1H-pyrazol-4-yl)phenol]	100 to 500 nM
Cc1cn2cc(-c3ncc4nc(N(C)C5C[C@H]6CCC[C@@H](C5)N6)sc4n3)cc(F)c2n1 (stereo partly drawn) [Compound 257, N-[(1R,5S)-9-azabicyclo[3.3.1]non-3-yl]-5-(8-fluoro-2-methylimidazo[1,2-a]pyridin-6-yl)-N-methyl[1,3]thiazolo[5,4-d]pyrimidin-2-amine]	≤ 100 nM
COc1cc(-c2cc(C)c3nn(C)cc3c2)cc2sc(C3=CCNCC3)nc12 [Compound 98, 6-(2,7-dimethyl-2H-indazol-5-yl)-4-methoxy-2-(1,2,3,6-tetrahydropyridin-4-yl)-1,3-benzothiazole]	100 to 500 nM
Cn1cc2cc(-c3cc(F)c4nc(C5CCNCC5)sc4c3)ccc2n1 [Compound 73, 4-fluoro-6-(2-methyl-2H-indazol-5-yl)-2-(piperidin-4-yl)-1,3-benzothiazole]	≤ 100 nM
CN(c1nc2nnc(-c3ccc(-c4cn[nH]c4)cc3O)cc2s1)C1CCN(C2CC2)CC1 [Compound 383, 2-{6-[(1-cyclopropylpiperidin-4-yl)(methyl)amino][1,3]thiazolo[4,5-c]pyridazin-3-yl}-5-(1H-pyrazol-4-yl)phenol]	≤ 100 nM
CN(c1nc2cnc(-c3cc(F)c4nn(C)cc4c3)cc2s1)C1CC2CCCC(C1)N2C (stereo not drawn) [Compound 273, 6-(7-fluoro-2-methyl-2H-indazol-5-yl)-N-methyl-N-(9-methyl-9-azabicyclo[3.3.1]non-3-yl)[1,3]thiazolo[4,5-c]pyridin-2-amine]	500 to 1000 nM
Cc1cn2nc(-c3cc(F)c4nc(C5CCNCC5)sc4c3)cc(CC(=O)O)c2n1 [Compound 221, {6-[4-fluoro-2-(piperidin-4-yl)-1,3-benzothiazol-6-yl]-2-methylimidazo[1,2-b]pyridazin-8-yl]acetic acid]	≤ 100 nM
CC1CC(c2nc3ccc(-c4ccc5nn(C)cc5c4)cc3s2)CC(C)N1 (stereo not drawn) [Compound 190, 2-(2,6-dimethylpiperidin-4-yl)-6-(2-methyl-2H-indazol-5-yl)-1,3-benzothiazole]	1000 to 3000 nM
Cc1cn2nc(-c3cnc4nc(C5CCNCC5)sc4c3)cc(C)c2n1 [Compound 61, 6-(2,8-dimethylimidazo[1,2-b]pyridazin-6-yl)-2-(piperidin-4-yl)[1,3]thiazolo[4,5-b]pyridine]	≤ 100 nM
CN(C)[C@H]1C[C@@H](N(C)c2nc3nnc(-c4ccc(-c5cn[nH]c5)cc4O)cc3s2)C1 [Compound 364, 2-(6-{[(1s,3s)-3-(dimethylamino)cyclobutyl](methyl)amino}[1,3]thiazolo[4,5-c]pyridazin-3-yl)-5-(1H-pyrazol-4-yl)phenol]	1000 to 3000 nM
Cc1cn2cc(-c3ncc4nc(N(C)C5CC6(C)CCC(C)(C5)N6)sc4n3)cc(F)c2n1 [Compound 284, N-[(1R,3s,5S)-1,5-dimethyl-8-azabicyclo[3.2.1]octan-3-yl]-5-(8-fluoro-2-methylimidazo[1,2-a]pyridin-6-yl)-N-methyl[1,3]thiazolo[5,4-d]pyrimidin-2-amine]	≤ 100 nM
Cc1cn2cc(-c3ccc4nc(N(C)C5CC(C)(C)NC(C)(C)C5)sc4c3)cc(C(F)(F)F)c2n1 [Compound 96, N-methyl-6-[2-methyl-8-(trifluoromethyl)imidazo[1,2-a]pyridin-6-yl]-N-(2,2,6,6-tetramethylpiperidin-4-yl)-1,3-benzothiazol-2-amine]	100 to 500 nM
Cc1cn2cc(-c3cc4sc(N(C)C5CC6CCCC(C5)N6C)nc4cn3)cc(F)c2n1 (stereo not drawn) [Compound 271, 6-(8-fluoro-2-methylimidazo[1,2-a]pyridin-6-yl)-N-methyl-N-(9-methyl-9-azabicyclo[3.3.1]non-3-yl)[1,3]thiazolo[4,5-c]pyridin-2-amine]	100 to 500 nM
CC[C@]12CC[C@](CC)(CC(N(C)c3nc4cnc(-c5cc(C#N)c6nc(C)cn6c5)nc4s3)C1)N2 (stereo partly drawn) [Compound 303, 6-(2-{[(1R,3r,5S)-1,5-diethyl-8-azabicyclo[3.2.1]octan-3-yl](methyl)amino}[1,3]thiazolo[5,4-d]pyrimidin-5-yl)-2-methylimidazo[1,2-a]pyridine-8-carbonitrile]	≤ 100 nM
Cc1cn2nc(-c3cc(F)c4nc(N5CC(C)NC(C)C5)sc4c3)cc(C)c2n1 (stereo not drawn) [Compound 132, 6-[2-(3,5-dimethylpiperazin-1-yl)-4-fluoro-1,3-benzothiazol-6-yl]-2,8-dimethylimidazo[1,2-b]pyridazine]	≤ 100 nM
Cc1cn2cc(-c3ccc4nc(N(C)C5CC6(C)CCC(C)(C5)N6)sc4n3)cc(F)c2n1 [Compound 292, N-[(1R,3s,5S)-1,5-dimethyl-8-azabicyclo[3.2.1]octan-3-yl]-5-(8-fluoro-2-methylimidazo[1,2-a]pyridin-6-yl)-N-methyl[1,3]thiazolo[5,4-b]pyridin-2-amine]	≤ 100 nM
Cn1cc2cc(-c3ccc4nc(C5(F)CCNCC5)sc4c3)ccc2n1 [Compound 41, 2-(4-fluoropiperidin-4-yl)-6-(2-methyl-2H-indazol-5-yl)-1,3-benzothiazole]	1000 to 3000 nM

Structure (SMILES)	IC50
Cc1cn2cc(-c3cc4sc(N(C)C5CCN(C)C(C)C5)nc4cn3)cc(C#N)c2n1 (stereo not drawn) [Compound 379, 6-{2-[(1,2-dimethylpiperidin-4-yl)(methyl)amino][1,3]thiazolo[4,5-c]pyridin-6-yl}-2-methylimidazo[1,2-a]pyridine-8-carbonitrile]	≤ 100 nM
Cc1cn2cc(-c3cc4sc(N(C)C5CC(C)(C)NC(C)(C)C5)nc4cn3)cnc2n1 [Compound 105, N-methyl-6-(2-methylimidazo[1,2-a]pyrimidin-6-yl)-N-(2,2,6,6-tetramethylpiperidin-4-yl)[1,3]thiazolo[4,5-c]pyridin-2-amine]	100 to 500 nM
Cn1cc2cc(-c3ccc4nc(OC5CC(C)(C)NC(C)(C)C5)sc4c3)ccc2n1 [Compound 64, 6-(2-methyl-2H-indazol-5-yl)-2-[(2,2,6,6-tetramethylpiperidin-4-yl)oxy]-1,3-benzothiazole]	1000 to 3000 nM
CN1C(C)(C)CC(Nc2nc3cnc(-c4cc(F)c5nn(C)cc5c4)cc3s2)CC1(C)C [Compound 269, 6-(7-fluoro-2-methyl-2H-indazol-5-yl)-N-(1,2,2,6,6-pentamethylpiperidin-4-yl)[1,3]thiazolo[4,5-c]pyridin-2-amine]	100 to 500 nM
CN1CCC(N(C)c2nc3nnc(-c4ccc(-c5c[nH]nc5F)cc4O)cc3s2)C1 (stereo not drawn) [Compound 391, 5-(3-fluoro-1H-pyrazol-4-yl)-2-{6-[methyl(1-methylpyrrolidin-3-yl)amino][1,3]thiazolo[4,5-c]pyridazin-3-yl]phenol]	≤ 100 nM
Cc1cn2cc(-c3ncc4nc(N(C)C5C6CCC5CNC6)sc4n3)cc(F)c2n1 (stereo not drawn) [Compound 227, N-[(8-anti)-3-azabicyclo[3.2.1]oct-8-yl]-5-(8-fluoro-2-methylimidazo[1,2-a]pyridin-6-yl)-N-methyl[1,3]thiazolo[5,4-d]pyrimidin-2-amine]	1000 to 3000 nM
Cc1cc(-c2ccc3nc(N(C)C4CC(C)(C)NC(C)(C)C4)sc3c2)cc2cn(C)nc12 [Compound 21, 6-(2,7-dimethyl-2H-indazol-5-yl)-N-methyl-N-(2,2,6,6-tetramethylpiperidin-4-yl)-1,3-benzothiazol-2-amine]	100 to 500 nM
Cn1cc2cc(-c3ccc4nc(C5CC(C)(C)NC(C)(C)C5)sc4c3)ccc2n1 [Compound 52, 6-(2-methyl-2H-indazol-5-yl)-2-(2,2,6,6-tetramethylpiperidin-4-yl)-1,3-benzothiazole]	1000 to 3000 nM
CC[C@]12CC[C@](CC)(CC(N(C)c3nc4cnc(-c5cc(F)c6nc(C)cn6c5)nc4s3)C1)N2 (stereo partly drawn) [Compound 304, N-[(1R,3r,5S)-1,5-diethyl-8-azabicyclo[3.2.1]octan-3-yl]-5-(8-fluoro-2-methylimidazo[1,2-a]pyridin-6-yl)-N-methyl[1,3]thiazolo[5,4-d]pyrimidin-2-amine]	100 to 500 nM
CN1C(C)(C)CC(Nc2nc3cnc(-c4cc(C#N)c5nn(C)cc5c4)cc3s2)CC1(C)C [Compound 268, 2-methyl-5-{2-[(1,2,2,6,6-pentamethylpiperidin-4-yl)amino][1,3]thiazolo[4,5-c]pyridin-6-yl}-2H-indazole-7-carbonitrile]	100 to 500 nM
CN(c1nc2ncc(-c3cc(C#N)c4nn(C)cc4c3)nc2s1)C1CC(C)(C)NC(C)(C)C1 [Compound 140, 2-methyl-5-{2-[methyl(2,2,6,6-tetramethylpiperidin-4-yl)amino][1,3]thiazolo[4,5-b]pyrazin-6-yl)-2H-indazole-7-carbonitrile]	≤ 100 nM
Fc1cc(-c2ccc3[nH]ncc3n2)cc2sc(C3CCNCC3)nc12 [Compound 78, 5-[4-fluoro-2-(piperidin-4-yl)-1,3-benzothiazol-6-yl]-1H-pyrazolo[4,3-b]pyridine]	500 to 1000 nM
COc1cc(-c2cc(F)c3nc(N(C)C4CCNCC4)sc3c2)nn2cc(C)nc12 [Compound 202, 4-fluoro-6-(8-methoxy-2-methylimidazo[1,2-b]pyridazin-6-yl)-N-methyl-N-(piperidin-4-yl)-1,3-benzothiazol-2-amine]	≤ 100 nM
CN(c1nc2ccc(-c3ccc4[nH]ncc4c3)cc2s1)C1CC(C)(C)NC(C)(C)C1 [Compound 34, 6-(1H-indazol-5-yl)-N-methyl-N-(2,2,6,6-tetramethylpiperidin-4-yl)-1,3-benzothiazol-2-amine]	100 to 500 nM
Cc1cn2nc(-c3cc(F)c4nc(N5CCNC6(CC6)C5)sc4c3)cc(C)c2n1 [Compound 125, 6-[2-(4,7-diazaspiro[2.5]oct-7-yl)-4-fluoro-1,3-benzothiazol-6-yl]-2,8-dimethylimidazo[1,2-b]pyridazine]	100 to 500 nM
Cc1cc(-c2cnc3nc(N(C)C4CC(C)(C)NC(C)(C)C4)sc3n2)cc2cn(C)nc12 [Compound 131, 6-(2,7-dimethyl-2H-indazol-5-yl)-N-methyl-N-(2,2,6,6-tetramethylpiperidin-4-yl)[1,3]thiazolo[4,5-b]pyrazin-2-amine]	≤ 100 nM

— patent US12139499B2, “Heteroaryl compounds for treating Huntington's disease” (PTC THERAPEUTICS, INC., priority 2018, dated 2024)
